Molecular target: T1, LasB (Pseudomonas aeruginosa, UniProt Q02RJ6)
T1 construct: made in house
Test: KC/LasB co-incubation study (ELISA)
Format: biochemical
Conditions: 100 µM (R)-30, 100 nM LasB, 10 min
Experimental: Figure S15: MS-based quantification of (R)-30 levels in serum and eye homogenate. Concentrations were determined after single treatment ((R)-30 alone) or after combination with Meropenem.
To test whether KC might be a substrate for LasB, an ELISA was used to quantify KC levels after co-incubation with LasB. Briefly, 500 pg/ml of the recombinant murine KC standard (R&D part 840327) was incubated for 10 minutes in PBS supplemented with 1% BSA and 0.1% DMSO (vehicle control), LasB (100 nM), (R)-30 (100 µM), or a combination of both. Detection of KC and absorbance measurements were performed as described above (3.11).
(also on this page, place not known: Serum Eye homogenate 100 1000 concentrations Concentration [ng/mL] Meropenem + (R)-30 (R)-30 , 10 LasB (R)-30)
(1 picture or pasted object on this page, not shown here)

T1 sequence (Q02RJ6 198-498): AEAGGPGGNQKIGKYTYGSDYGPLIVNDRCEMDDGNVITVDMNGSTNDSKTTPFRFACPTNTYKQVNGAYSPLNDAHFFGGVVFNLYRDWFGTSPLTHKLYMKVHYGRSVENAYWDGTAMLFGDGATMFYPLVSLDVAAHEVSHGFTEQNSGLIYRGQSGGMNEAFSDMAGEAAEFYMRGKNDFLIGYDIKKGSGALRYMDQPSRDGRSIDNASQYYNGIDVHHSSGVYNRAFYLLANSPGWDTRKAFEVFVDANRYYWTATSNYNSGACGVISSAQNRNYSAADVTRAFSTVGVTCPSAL

## CC(=O)c1ccc(NC(=O)[C@@H](NC(=O)[C@@H](CC(C)C)P(=O)(O)O)C(C)C)cc1 [(R)‐30]
  proteolytic activity of LasB on KC: effectively blocked
